Measured values published in patent US11957687B2 (REGENERON PHARMACEUTICALS, INC., priority 2019, dated 2024).

Experiments:
HSD17B13 = HSD17B13 (Homo sapiens (Human), UniProt Q7Z5P4); experiment: HSD17B13 enzymatic inhibition assay (150 nM or 50 nM HSD17B13); assay type: biochemical; settings: 50 nM HSD17B13; read-out: Inhibition of 50 nM of HSD17B13 IC50
[1] = Microsome stability assay, mouse liver microsomes; assay type: in vitro ADME; settings: 1 μM compound, 0.5 mg/mL microsomal protein; for microsomal CLint at 1 h, 1 µM / half-life at 1 h, 1 µM / microsomal CLint at 1 μM / half-life at 1 μM: mouse, mouse liver microsomes, pooled, NADPH, 37° C.; for microsomal CLint at 1 h, 1 µM / microsomal CLint at 1 μM: read-out: Microsome Stability Mouse liver microsomes Cl; for half-life at 1 h, 1 µM / half-life at 1 μM: read-out: Microsome Stability Mouse liver microsomes T½
How it was run: (§1)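 Compound at 1 μM incubated at 37° C with pooled human or mouse liver microsomes (0.5 mg/mL protein) plus NADPH regenerating system, sampled at 0–60 min; a 60-min no-NADPH incubation also included. Single replicate; LC/MS/MS disappearance from analyte/internal standard peak area ratios, without standard curve.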

HSD17B2 = HSD17B2 (Homo sapiens (Human), UniProt P37059); experiment: HSD17B2 enzymatic blocking assay; assay type: biochemical; settings: 1.8 μM Estradiol, 650 μM NAD; read-out: Inhibition of HSD17B2 IC50
Chain of HSD17B2 (P37059 other isoform, or with tags, fused parts or gaps): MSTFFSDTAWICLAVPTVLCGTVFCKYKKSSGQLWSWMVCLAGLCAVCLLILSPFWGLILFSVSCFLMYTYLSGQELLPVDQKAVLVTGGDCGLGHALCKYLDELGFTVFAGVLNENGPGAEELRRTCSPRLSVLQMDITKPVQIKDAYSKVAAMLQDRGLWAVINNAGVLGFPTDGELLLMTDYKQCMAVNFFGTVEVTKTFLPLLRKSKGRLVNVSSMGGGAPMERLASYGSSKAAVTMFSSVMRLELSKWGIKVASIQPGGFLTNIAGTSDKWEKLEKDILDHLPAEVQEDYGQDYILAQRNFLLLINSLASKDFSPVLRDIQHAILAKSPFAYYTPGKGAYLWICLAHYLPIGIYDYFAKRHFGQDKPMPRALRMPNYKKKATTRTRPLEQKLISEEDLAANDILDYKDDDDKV
How it was run: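 Mammalian-expressed enzyme at 2 ng/μL in 50 mM Tris-HCl pH 7.5 with detergents/BSA, preincubated 15 min at 20° C. with compound (10-point titration). Reaction with 1.8 μM estradiol and 650 μM NAD ran 45 min at 20° C.; NADH measured by NADH-Glo luminescence and IC50 derived.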

HSD17B1 = HSD17B1 (Homo sapiens (Human), UniProt P14061); experiment: HSD17B1 enzymatic blocking assay; assay type: biochemical; settings: 25 μM Estradiol, 500 μM NAD; read-out: Inhibition of HSD17B1 IC50
Chain of HSD17B1 (P14061 other isoform, or with tags, fused parts or gaps): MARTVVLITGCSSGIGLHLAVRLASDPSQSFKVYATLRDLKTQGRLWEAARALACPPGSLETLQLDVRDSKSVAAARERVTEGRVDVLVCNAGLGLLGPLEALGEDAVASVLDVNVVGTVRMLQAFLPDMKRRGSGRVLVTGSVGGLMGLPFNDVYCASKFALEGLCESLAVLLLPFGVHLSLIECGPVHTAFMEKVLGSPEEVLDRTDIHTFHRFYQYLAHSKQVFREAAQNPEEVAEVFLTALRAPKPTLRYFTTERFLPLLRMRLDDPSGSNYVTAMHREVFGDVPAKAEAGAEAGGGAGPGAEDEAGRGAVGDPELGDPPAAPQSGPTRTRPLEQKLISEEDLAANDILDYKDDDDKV
How it was run: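 Activity followed as NADH formed on estradiol oxidation, read by NADH-Glo luminescence after 1 h detection in the dark at room temperature. Compounds preincubated with enzyme 30 min at room temperature; 0.5% DMSO and no-substrate controls. IC50 fitted from luminescence.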

[2] = Microsome stability assay, human liver microsomes; assay type: in vitro ADME; settings: 1 μM compound, 0.5 mg/mL microsomal protein
How it was run: as §1

[3] = human, human liver microsomes, pooled, NADPH, 37° C., read-out: Microsome Stability Human liver microsomes Cl
[4] = human, human liver microsomes, pooled, NADPH, 37° C., read-out: Microsome Stability Human liver microsomes T½

Chain of HSD17B13 (Q7Z5P4 other isoform, or with tags, fused parts or gaps): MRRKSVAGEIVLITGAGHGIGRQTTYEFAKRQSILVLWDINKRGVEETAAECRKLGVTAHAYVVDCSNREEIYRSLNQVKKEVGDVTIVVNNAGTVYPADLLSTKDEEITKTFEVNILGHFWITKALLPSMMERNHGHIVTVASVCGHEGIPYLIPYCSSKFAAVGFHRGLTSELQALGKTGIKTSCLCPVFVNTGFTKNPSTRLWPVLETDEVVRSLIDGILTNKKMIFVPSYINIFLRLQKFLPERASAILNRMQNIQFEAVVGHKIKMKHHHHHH

Structure (SMILES)	IC50 (HSD17B13) [µM]	Microsome Stability Mouse liver microsomes % Remaining @60 min [1] [%]	microsomal CLint at 1 h, 1 µM [1] [µL/min/mg]	half-life at 1 h, 1 µM [1] [min]	IC50 (HSD17B2) [µM]	IC50 (HSD17B1) [µM]	Microsome Stability Human liver microsomes % Remaining @60 min [2] [%]	microsomal CLint at 1 h, 1 µM [2, 3] [µL/min/mg]	half-life at 1 h, 1 µM [2, 4] [min]	microsomal CLint at 1 μM [1] [µL/min/mg]	half-life at 1 μM [1] [min]	microsomal CLint at 1 μM [2, 3] [µL/min/mg]	half-life at 1 μM [2, 4] [min]
CCCC1CCc2cc(OC)ccc2C1NC(=O)c1ccc(C(F)(F)F)[nH]c1=O (stereo not drawn) [Compound 289, N-(6-methoxy-2-propyl-1,2,3,4-tetrahydronaphthalen-1-yl)-2-oxo-6-(trifluoromethyl)-1,2-dihydropyridine-3-carboxamide]	0.08	22.70	47	29.5	29.4	> 30	14.90	59.9	23.1				
CCC1Cc2cc(C)ccc2C1NC(=O)c1ccc(C(F)(F)F)[nH]c1=O (stereo not drawn) [Compound 298, N-(2-ethyl-5-methyl-2,3-dihydro-1H-inden-1-yl)-2-oxo-6-(trifluoromethyl)-1,2-dihydropyridine-3-carboxamide]	0.06	26.50	45.1	30.7	30.9	> 30	1	450	3.08				
CCC1CCc2cc(OC)ccc2C1NC(=O)c1ccc(C(F)(F)F)[nH]c1=O (stereo not drawn) [Compound 299, N-(2-ethyl-6-methoxy-1,2,3,4-tetrahydronaphthalen-1-yl)-2-oxo-6-(trifluoromethyl)-1,2-dihydropyridine-3-carboxamide]	0.1	43.50	27.4	50.6	22.6	> 30	11	66.8	20.8				
Cc1ccc2c(c1)Sc1cc(C)ccc1C2NC(=O)c1cc(-c2ccccc2)c(C(F)(F)F)[nH]c1=O [Compound 306, N-(3,6-dimethyl-9H-thioxanthen-9-yl)-2-oxo-5-phenyl-6-(trifluoromethyl)-1,2-dihydropyridine-3-carboxamide]	0.03	70.90	9.6	144	17.3	7.47	12.80	72.9	19				
Cc1ccc2c(c1)Sc1cc(C)ccc1C2NC(=O)c1cc(-c2ccccn2)c(C(F)(F)F)[nH]c1=O [Compound 307, N-(3,6-dimethyl-9H-thioxanthen-9-yl)-6′-oxo-2′-(trifluoromethyl)-1′,6′ dihydro-[2,3′-bipyridine]-5′-carboxamide]	0.01	96.20			8.98	2.73	0.85	154	9	< 9.6	> 145		
Cc1ccc2c(c1)[C@H](O)CC[C@H]2NC(=O)c1ccc(C(F)(F)F)[nH]c1=O [Compound 311, N-((1R,4R)-4-hydroxy-6-methyl-1,2,3,4-tetrahydronaphthalen-1-yl)-2-oxo-6-(trifluoromethyl)-1,2-dihydropyridine-3-carboxamide]	0.19	105			> 100	> 30	67.80	10.5	132	< 9.6	> 145		
COc1ccc2c(c1)Oc1cnccc1C2NC(=O)c1ccc(C(F)(F)F)[nH]c1=O (stereo not drawn) [Compound 327, N-(8-methoxy-5H-chromeno[2,3-c]pyridin-5-yl)-2-oxo-6-(trifluoromethyl)-1,2-dihydropyridine-3-carboxamide]	0.38	46	24.6	56.3	> 100	21.4	62	15.8	87.7				
COC1Cc2cc(C)ccc2C1NC(=O)c1ccc(C(F)(F)F)[nH]c1=O (stereo not drawn) [Compound 351, N-(2-methoxy-5-methyl-2,3-dihydro-1H-inden-1-yl)-2-oxo-6-(trifluoromethyl)-1,2-dihydropyridine-3-carboxamide]	0.51	83.70			65.4	> 30	0.73	157	8.84	< 9.6	> 145		
COc1ccc2c(c1)CC(OC)C2NC(=O)c1ccc(C(F)(F)F)[nH]c1=O (stereo not drawn) [Compound 352, N-(2,5-dimethoxy-2,3-dihydro-1H-inden-1-yl)-2-oxo-6-(trifluoromethyl)-1,2-dihydropyridine-3-carboxamide]	0.7	88.70			> 100	> 30	5.86	93.5	14.8	< 9.6	> 145		
CC[C@@H]1Oc2cc(C)ccc2[C@H]1NC(=O)c1ccc(C(F)(F)F)[nH]c1=O [Compound 360, N-((2S,3R)-2-ethyl-6-methyl-2,3-dihydrobenzofuran-3-yl)-2-oxo-6-(trifluoromethyl)-1,2-dihydropyridine-3-carboxamide]	0.59	36.20	32.8	42.2	23.1	> 30	1	318	4.36				
CCC[C@H]1C[C@@H](NC(=O)c2ccc(C(F)(F)F)[nH]c2=O)c2cc(C)ccc2N1 [Compound 362, N-((2S,4R)-6-methyl-2-propyl-1,2,3,4-tetrahydroquinolin-4-yl)-2-oxo-6-(trifluoromethyl)-1,2-dihydropyridine-3-carboxamide]	0.08	70			27.5	> 30	58.50			12.1	114	15.3	90.7
CCCC1Cc2cc(C)ccc2C(NC(=O)c2ccc(C(F)(F)F)[nH]c2=O)C1 (stereo not drawn) [Compound 387, N-(6-methyl-3-propyl-1,2,3,4-tetrahydronaphthalen-1-yl)-2-oxo-6-(trifluoromethyl)-1,2-dihydropyridine-3-carboxamide]	0.05	21.60	52	26.6	27.7	> 30	2.70	112	12.3				
